Measured values from patent US5641861A, “μopioid receptor ligands: agonists and antagonists” (Torrey Pines Institute For Molecular Studies, priority 1995, dated 1997).
Where no end group is shown, it is not given here. [ ]: non-standard residue; d: D form.

Assays:
κ receptors = molecular target: T1, κ receptors (Cavia porcellus, UniProt P41144); test: Radioreceptor assay selective for κ receptors ([3H]-U69,593); type: binding, guinea pig; settings: ratio of IC50 values
T1 construct: tissue homogenates prepared from guinea pig brains (cortex and cerebellum); tissue Harlan Bioproducts for Science; host or cells: guinea pig brain (cortex and cerebellum) homogenate
Experimental: Assays selective for κ receptors were carried out using [^3 H]-U69,593 (3 nM, specific activity 62 Ci/mmol) as the radioligand and tissue homogenates prepared from guinea pig brains (cortex and cerebellum) using Tris buffer containing 100 μM PMSF, 5 mMMgCl2 and 1 mg/ml BSA, pH 7.4. Sample tubes were incubated for 2.5 hr.

δ receptors = molecular target: T2, δ receptors (Rattus norvegicus, UniProt P33533); test: Radioreceptor assay selective for δ receptors ([3H]-naltrindole); type: binding; settings: ratio of IC50 values
T2 construct: Radioreceptor assays selective for δ receptors were performed using rat brain homogenates; tissue Harlan Bioproducts for Science; host or cells: rat brain crude membrane homogenate
Experimental: Radioreceptor assays selective for δ receptors were performed using rat brain homogenates as above and [^3 H]-naltrindole (0.5 nM, specific activity 34.7 Ci/mmol) as radioligand in Tris buffer containing 100 μM phenylmethylsulfonyl fluoride (PMSF), 5 mMMgCl2 and 1 mg/ml bovine serum albumin (BSA), pH 7.4. Samples were incubated for 2.5 hr. Standard curves were prepared using 0.10-3200 nM [^3 H]-D-Pen2, Pen5 ]-enkephalin ([^3 H]-DPDPE).

μ receptor = molecular target: T3, μ receptor (Homo sapiens, UniProt P35372); test: Adenylyl cyclase assay, SH-SY5Y neuroblastoma cell membranes; type: biochemical; settings: AGONISTS section; cyclic AMP level, agonist alone at 100 μM
T3 construct: An adenylyl cyclase assay using human SH-SY5Y neuroblastoma cell line membranes; endogenous in cells; host or cells: human SH-SY5Y neuroblastoma cells, retinoic-acid differentiated; membranes
Experimental: An adenylyl cyclase assay using human SH-SY5Y neuroblastoma cell line membranes was used to rapidly determine the opioid agonists or antagonist properties of individual peptides. Opioid agonist inhibit adenylyl cyclase activity, resulting in reduced levels of cyclic AMP.
Cell membranes were prepared for use in the adenylyl cyclase assays as previously described (Law et al., Mol. Pharmacol., 23:26-35 (1983), which is herein incorporated by reference). After the initial centrifugation at 200×g for 15 min at 4° C., the cells were resuspended in sucrose buffer (0.32M sucrose, 40 mM HEPES, 2 mMEGTA, pH 7.6). Cells were centrifuged again at 200×g, then homogenized in sucrose buffer with five strokes of a Dounce Homogenizer (Wheaton Instruments, Millville, N.J.). […]
SH-SY5Y membranes were incubated in a final volume of 100 μl of 40 mM HEPES, pH 7.7, containing 15 units of creatine phosphokinase, 20 mM phosphocreatine, 1 mM 1,10-o-phenanthroline, 60 μM isobutylmethylxanthine (IBMX), 50 μM ATP, 50 μM GTP, 3 mM MgCl2 and 100 mM NaCl. […] The amount of cyclic AMP present in 100 μl of the supernatant, equivalent to the cyclic AMP produced by 15 μg of membrane protein, was determined using a cyclic AMP kit (Diagnostic Products, Los Angeles, Calif.). […] The final supernatants were counted in 10 ml of Ecolite (+) scintillation fluid (ICN Pharmaceuticals, Covina, Calif.).

MU RECEPTOR = test: Agonist or antagonist activity by adenylyl cyclase assay or GPI assay (not specified which); settings: Table 13
guinea-pig ileum = settings: inhibition of electrically stimulated contraction; read-out: GPI IC50
Source text: The GPI assay (Kosterlitz et al., Br. J. Pharam. 39:398-418 (1970), which is incorporated herein by reference), is one of the most widely used assays for the determination of opioid activities in vitro. The assay is based on the ability of opioid agonists to inhibit electrically stimulated contraction in tissue. GPI is not a "clean" assay insofar as the ileum preparation contains both μ and κ receptors. However, μ receptor mediated-effects in the GPI can be distinguished from κ receptor mediated effects by determining Ke values for naloxone as the antagonist (μ effects: Ke ~1-3 nM); κ effects: Ke ~20-30 nM) or by using specific μ or κ antagonists.
The guinea pigs were killed by decapitation. […] Isometric contractions were measured via strain gauge force transducers and recorded on stripchart recorders.
In all bioassays, a dose-response curve with a reference compound (e.g., [D-Ala^2, Leu^5 ]enkephelinamide or U50,488) is used in each preparation. […] Ke values for naloxone or other antagonists are determined from the ratio of IC50 values (DR) obtained with the peptide under investigation in the presence and absence of a fixed concentration of the antagonist, using the formula Ke =a/(DR-1) ("a"=fixed concentration). A log dose-response curve is obtained with [Leu^5 ]enkephalin for each ileum and vas deferens preparation and the IC50 value is determined. […]

mouse vas deferens = test: Mouse vas deferens (MVD) bioassay; settings: inhibition of electrically stimulated contraction
Source text: The mouse vas deferens (MVD) bioassay was also used to determine whether a peptide is an opioid agonist or an opiod antagonist. Again, such information is not available from the radioreceptor binding assay results.
The MVD assay (Henderson et al., Br. J. Pharma. 12:119-127 (1957), which is incorporated herein by reference) is another one of the most widely used assays for the determination of opioid activities in vitro. This assay, like the GPI assay, is based on the ability of opioid agonists to inhibit electrically stimulated contractions in tissue. The MVD assay is also not "clean" in that, in addition to the predominant δ receptor, the μ and κ receptors are also present. […]
Mouse vasa deferentia were dissected and placed in Krebs solution. The responses of the longitudinal muscle were recorded under a basal tension of 0.5 g and excited by pulses of 1 millisecond duration.
In all bioassays, a dose-response curve with a reference compound (e.g., [D-Ala^2, Leu^5 ]enkephelinamide or U50,488) is used in each preparation. […] Potencies of new compounds to be tested are determined relative to that of the reference compound, and their IC50 values are normalized based on an average IC50 value which has been obtained for the reference compound by performance of many determinations with a large number of preparations. […]

T2 sequence (P33533 whole entry): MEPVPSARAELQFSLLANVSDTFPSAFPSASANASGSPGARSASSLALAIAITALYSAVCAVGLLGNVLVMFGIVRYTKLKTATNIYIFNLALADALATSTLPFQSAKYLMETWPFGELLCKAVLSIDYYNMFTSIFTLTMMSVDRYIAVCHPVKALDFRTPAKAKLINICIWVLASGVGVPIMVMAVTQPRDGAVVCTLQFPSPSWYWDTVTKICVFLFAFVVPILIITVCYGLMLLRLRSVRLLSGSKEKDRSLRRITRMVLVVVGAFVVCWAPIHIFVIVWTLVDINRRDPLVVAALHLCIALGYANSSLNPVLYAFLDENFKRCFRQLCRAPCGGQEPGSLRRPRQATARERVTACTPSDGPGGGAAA
T1 sequence (P41144 whole entry): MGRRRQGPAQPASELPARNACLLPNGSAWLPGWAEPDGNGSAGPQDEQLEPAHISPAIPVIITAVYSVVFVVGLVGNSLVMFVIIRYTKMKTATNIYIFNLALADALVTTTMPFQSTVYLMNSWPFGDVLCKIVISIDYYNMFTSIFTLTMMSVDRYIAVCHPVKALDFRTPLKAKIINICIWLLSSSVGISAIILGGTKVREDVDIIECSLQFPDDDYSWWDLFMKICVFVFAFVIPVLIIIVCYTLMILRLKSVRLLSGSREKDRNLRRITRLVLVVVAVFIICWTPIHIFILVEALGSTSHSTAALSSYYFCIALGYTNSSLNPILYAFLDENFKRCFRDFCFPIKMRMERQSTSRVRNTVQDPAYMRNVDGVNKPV
T3 sequence (P35372 whole entry): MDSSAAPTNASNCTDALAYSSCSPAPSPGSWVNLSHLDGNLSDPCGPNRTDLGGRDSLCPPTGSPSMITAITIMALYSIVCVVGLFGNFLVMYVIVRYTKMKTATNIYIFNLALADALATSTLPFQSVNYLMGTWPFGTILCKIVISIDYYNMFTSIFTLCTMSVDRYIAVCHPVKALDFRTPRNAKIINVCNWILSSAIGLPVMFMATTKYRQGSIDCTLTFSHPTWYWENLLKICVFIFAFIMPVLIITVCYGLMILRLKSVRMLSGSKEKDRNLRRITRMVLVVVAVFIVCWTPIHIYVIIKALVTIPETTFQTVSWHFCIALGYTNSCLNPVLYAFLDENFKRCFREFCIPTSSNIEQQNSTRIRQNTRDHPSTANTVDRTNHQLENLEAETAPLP

For Trp--Trp--Pro--Arg--NH2 [SEQ ID NO. 69], the κ/μ (κ receptors) was 2,060 and the δ/μ (δ receptors) was 1,740.

With C[C@@H](NC(=O)[C@@H](N)Cc1ccc(O)cc1)C(=O)NCC(=O)N(C)[C@@H](Cc1ccccc1)C(=O)NCCO [DAMGO, [D-Ala^2, MePhe^4, Gly-ol^5]enkephalin] the “% Basal Control” value (μ receptor) was 34 ± 6%.

With “(D)Ile--(D)Met--(D)Thr--(D)Trp--Gly--(D)Pro--NH2 ([dI][dM][dT][dW]G[dP]-NH2; N-terminus assumed; SMILES CC[C@@H](C)[C@@H](N)C(=O)N[C@H](CCSC)C(=O)N[C@@H](C(=O)N[C@H](Cc1c[nH]c2ccccc12)C(=O)NCC(=O)N1CCC[C@@H]1C(N)=O)[C@H](C)O) [SEQ ID NO. 130]” the “AGONIST OR ANTAGONIST” value (MU RECEPTOR) was “Agonist”.

In the case of WWPKHK-NH2 [SEQ ID NO. 50], the IC50 (guinea-pig ileum) is reported as 270 ± 19 nM and the IC50 (mouse vas deferens) is reported as 45 ± 7 nM.
